Laboratory results reported in patent US20240092835A1, “NOVEL PEPTIDES CAPABLE OF ALTERING NK CELL ACTIVITY” (Massachusetts Institute of Technology, priority 2022, published 2024).

Assays:
NKG2A−/NKG2C+ NK cells = assay: NK cell activation markers in NKG2A-/NKG2C+ NK cells incubated with peptide and K562 expressing HLA-E (activation); type: cell-based, human; details: for effect on NKG2A−/NKG2C+ NK cell activation (in words): K562 expressing HLA-E, CD107a, IFNG, TNF, CCL3; for percentage of CCL3+ NK cells / percentage of CD107+ NK cells / percentage of IFNG+ NK cells / percentage of TNF+ NK cells: NKG2A-/NKG2C+ NK cells, K562/HLA-E
How it was run: (§1)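 HLA-E-expressing K562 cells incubated with peptides from human or human cytomegalovirus proteomes, then with NK cell subsets sorted by NKG2A/NKG2C status. Read-out is percent of cells positive for surface markers; a rise indicates activation, a fall inhibition.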

NKG2A−/NKG2C− NK cells = assay: NK cell activation markers in control NKG2A-/NKG2C- NK cells incubated with peptide and K562 expressing HLA-E; type: cell-based, human
How it was run: as §1

HLA-E = target: T1, HLA-E (Homo sapiens, UniProt P13747); assay: HLA-E surface stabilization assay with RMA-S/HLA-E cells; type: cell-based; details: 30 μM peptide, 16 hours, anti-HLA-E antibody
T1 construct: expressed in transfected cells; host or cells: RMA-S/HLA-E cells (antigen processing-defective lymphoma cell line)
T1 sequence (P13747 22-358): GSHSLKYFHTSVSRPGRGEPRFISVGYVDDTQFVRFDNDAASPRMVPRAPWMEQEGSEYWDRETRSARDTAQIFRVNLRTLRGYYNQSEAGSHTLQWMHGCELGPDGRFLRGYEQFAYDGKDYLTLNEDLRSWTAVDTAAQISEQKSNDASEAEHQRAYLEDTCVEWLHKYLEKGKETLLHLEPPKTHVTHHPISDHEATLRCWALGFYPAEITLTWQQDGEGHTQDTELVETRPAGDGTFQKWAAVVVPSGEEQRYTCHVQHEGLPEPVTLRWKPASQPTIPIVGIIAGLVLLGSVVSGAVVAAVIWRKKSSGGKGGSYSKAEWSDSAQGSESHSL
T1 sequence (P61769 21-119 partner): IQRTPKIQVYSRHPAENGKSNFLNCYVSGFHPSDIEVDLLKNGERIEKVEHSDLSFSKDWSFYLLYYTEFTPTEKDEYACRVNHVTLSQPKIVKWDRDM
Description: HLA-E surface expression was assessed by measuring geometric mean fluorescence intensity (GeoMFI) in RMA-S cells following immunofluorescence staining with an anti-HLA-E antibody (Table 14). Increased GeoMFI was indicative of increased HLA-E surface expression stability following novel peptide exposures (FIG. 3).

NKG2A+/NKG2C− NK cells = assay: NK cell activation markers in NKG2A+/NKG2C- NK cells incubated with peptide and K562 expressing HLA-E (inhibition); type: cell-based, human; details: for percentage of CCL3+ NK cells / percentage of CD107a+ NK cells / percentage of IFNG+ NK cells / percentage of TNF+ NK cells: NKG2A+/NKG2C- NK cells, K562/HLA-E
How it was run: as §1

VMPPRTLLL [human15, peptide HLA-A 3-11 derived from the human proteome]
effect on NKG2A−/NKG2C+ NK cell activation (in words) (NKG2A−/NKG2C+ NK cells; listed as SEQ ID NO. 14): strong activating effects
effect on NKG2A−/NKG2C+ NK cell activation (in words) (NKG2A−/NKG2C+ NK cells; listed as h15): strong inhibitory and activating effects
percentage of CCL3+ NK cells (NKG2A−/NKG2C+ NK cells; Trial 1): 79.5%
percentage of CD107+ NK cells (NKG2A−/NKG2C+ NK cells; Trial 1): 78.4%
percentage of IFNG+ NK cells (NKG2A−/NKG2C+ NK cells; Trial 1): 66.7%
percentage of TNF+ NK cells (NKG2A−/NKG2C+ NK cells; Trial 1): 52.1%
percentage of CCL3+ NK cells (NKG2A−/NKG2C+ NK cells; Trial 2): 89.7%
percentage of CD107+ NK cells (NKG2A−/NKG2C+ NK cells; Trial 2): 86%
percentage of IFNG+ NK cells (NKG2A−/NKG2C+ NK cells; Trial 2): 79.9%
percentage of TNF+ NK cells (NKG2A−/NKG2C+ NK cells; Trial 2): 71.8%
percentage of CCL3+ NK cells (NKG2A−/NKG2C+ NK cells; Trial 3): 86.8%
percentage of CD107+ NK cells (NKG2A−/NKG2C+ NK cells; Trial 3): 88.2%
percentage of IFNG+ NK cells (NKG2A−/NKG2C+ NK cells; Trial 3): 78.8%
percentage of TNF+ NK cells (NKG2A−/NKG2C+ NK cells; Trial 3): 68.2%
percentage of CCL3+ NK cells (NKG2A−/NKG2C+ NK cells; Trial 4): 69%
percentage of CD107+ NK cells (NKG2A−/NKG2C+ NK cells; Trial 4): 68.9%
percentage of IFNG+ NK cells (NKG2A−/NKG2C+ NK cells; Trial 4): 60.9%
percentage of TNF+ NK cells (NKG2A−/NKG2C+ NK cells; Trial 4): 52.6%
percentage of CCL3+ NK cells (NKG2A−/NKG2C+ NK cells; Trial 5): 78.9%
percentage of CD107+ NK cells (NKG2A−/NKG2C+ NK cells; Trial 5): 78%
percentage of IFNG+ NK cells (NKG2A−/NKG2C+ NK cells; Trial 5): 71.9%
percentage of TNF+ NK cells (NKG2A−/NKG2C+ NK cells; Trial 5): 66.6%
percentage of CCL3+ NK cells (NKG2A−/NKG2C+ NK cells; Trial 6): 58.4%
percentage of CD107+ NK cells (NKG2A−/NKG2C+ NK cells; Trial 6): 56.2%
percentage of IFNG+ NK cells (NKG2A−/NKG2C+ NK cells; Trial 6): 44.1%
percentage of TNF+ NK cells (NKG2A−/NKG2C+ NK cells; Trial 6): 36.3%
percentage CCL3+ NK cells (NKG2A−/NKG2C− NK cells; Trial 1): 34%
percentage CD107+ NK cells (NKG2A−/NKG2C− NK cells; Trial 1): 25.7%
percentage TNF+ NK cells (NKG2A−/NKG2C− NK cells; Trial 1): 3.42%
percentage of IFNG+ NK cells (NKG2A−/NKG2C− NK cells; Trial 1): 15.5%
percentage CCL3+ NK cells (NKG2A−/NKG2C− NK cells; Trial 2): 55.5%
percentage CD107+ NK cells (NKG2A−/NKG2C− NK cells; Trial 2): 34.1%
percentage TNF+ NK cells (NKG2A−/NKG2C− NK cells; Trial 2): 9.68%
percentage of IFNG+ NK cells (NKG2A−/NKG2C− NK cells; Trial 2): 25.4%
percentage CCL3+ NK cells (NKG2A−/NKG2C− NK cells; Trial 3): 46.7%
percentage CD107+ NK cells (NKG2A−/NKG2C− NK cells; Trial 3): 43.7%
percentage TNF+ NK cells (NKG2A−/NKG2C− NK cells; Trial 3): 14.8%
percentage of IFNG+ NK cells (NKG2A−/NKG2C− NK cells; Trial 3): 34.7%
percentage CCL3+ NK cells (NKG2A−/NKG2C− NK cells; Trial 4): 34.3%
percentage CD107+ NK cells (NKG2A−/NKG2C− NK cells; Trial 4): 29.6%
percentage TNF+ NK cells (NKG2A−/NKG2C− NK cells; Trial 4): 10.3%
percentage of IFNG+ NK cells (NKG2A−/NKG2C− NK cells; Trial 4): 20.3%
percentage CCL3+ NK cells (NKG2A−/NKG2C− NK cells; Trial 5): 24.7%
percentage CD107+ NK cells (NKG2A−/NKG2C− NK cells; Trial 5): 18.9%
percentage TNF+ NK cells (NKG2A−/NKG2C− NK cells; Trial 5): 6.97%
percentage of IFNG+ NK cells (NKG2A−/NKG2C− NK cells; Trial 5): 14.7%
percentage CCL3+ NK cells (NKG2A−/NKG2C− NK cells; Trial 6): 26.4%
percentage CD107+ NK cells (NKG2A−/NKG2C− NK cells; Trial 6): 21.1%
percentage TNF+ NK cells (NKG2A−/NKG2C− NK cells; Trial 6): 5.43%
percentage of IFNG+ NK cells (NKG2A−/NKG2C− NK cells; Trial 6): 11.9%
HLA-E surface expression stability (GeoMFI) (HLA-E; Trial 1): 3783 GeoMFI
HLA-E surface expression stability (GeoMFI) (HLA-E; Trial 2): 4068 GeoMFI
HLA-E surface expression stability (GeoMFI) (HLA-E; Trial 3): 4205 GeoMFI
HLA-E surface expression stability (GeoMFI) (HLA-E; Trial 4): 4760 GeoMFI
effect on NKG2A+/NKG2C− NK cell inhibition (in words) (NKG2A+/NKG2C− NK cells; K562 expressing HLA-E, CD107a, IFNG, TNF, CCL3): strong inhibitory
percentage of CCL3+ NK cells (NKG2A+/NKG2C− NK cells; Trial 1): 1.79%
percentage of CD107a+ NK cells (NKG2A+/NKG2C− NK cells; Trial 1): 0.49%
percentage of IFNG+ NK cells (NKG2A+/NKG2C− NK cells; Trial 1): 0.05%
percentage of TNF+ NK cells (NKG2A+/NKG2C− NK cells; Trial 1): 0.01%
percentage of CCL3+ NK cells (NKG2A+/NKG2C− NK cells; Trial 2): 1.6%
percentage of CD107a+ NK cells (NKG2A+/NKG2C− NK cells; Trial 2): 0.79%
percentage of IFNG+ NK cells (NKG2A+/NKG2C− NK cells; Trial 2): 0.3%
percentage of TNF+ NK cells (NKG2A+/NKG2C− NK cells; Trial 2): 0.27%
percentage of CCL3+ NK cells (NKG2A+/NKG2C− NK cells; Trial 3): 1.12%
percentage of CD107a+ NK cells (NKG2A+/NKG2C− NK cells; Trial 3): 0.73%
percentage of IFNG+ NK cells (NKG2A+/NKG2C− NK cells; Trial 3): 0.44%
percentage of TNF+ NK cells (NKG2A+/NKG2C− NK cells; Trial 3): 0.19%
percentage of CCL3+ NK cells (NKG2A+/NKG2C− NK cells; Trial 4): 0.75%
percentage of CD107a+ NK cells (NKG2A+/NKG2C− NK cells; Trial 4): 0.75%
percentage of IFNG+ NK cells (NKG2A+/NKG2C− NK cells; Trial 4): 0.2%
percentage of TNF+ NK cells (NKG2A+/NKG2C− NK cells; Trial 4): 0.18%
percentage of CCL3+ NK cells (NKG2A+/NKG2C− NK cells; Trial 5): 3.7%
percentage of CD107a+ NK cells (NKG2A+/NKG2C− NK cells; Trial 5): 1.04%
percentage of IFNG+ NK cells (NKG2A+/NKG2C− NK cells; Trial 5): 0.19%
percentage of TNF+ NK cells (NKG2A+/NKG2C− NK cells; Trial 5): 0.16%
percentage of CCL3+ NK cells (NKG2A+/NKG2C− NK cells; Trial 6): 2.09%
percentage of CD107a+ NK cells (NKG2A+/NKG2C− NK cells; Trial 6): 0.52%
percentage of IFNG+ NK cells (NKG2A+/NKG2C− NK cells; Trial 6): 0.24%
percentage of TNF+ NK cells (NKG2A+/NKG2C− NK cells; Trial 6): 0.05%
